Source: publication PMC3824017 (The Journal of Cell Biology, 2013)

Key:
erlin-1 = target: T1, erlin-1 (Homo sapiens, UniProt O75477); assay type: binding
T1 sequence (O75477 1-348): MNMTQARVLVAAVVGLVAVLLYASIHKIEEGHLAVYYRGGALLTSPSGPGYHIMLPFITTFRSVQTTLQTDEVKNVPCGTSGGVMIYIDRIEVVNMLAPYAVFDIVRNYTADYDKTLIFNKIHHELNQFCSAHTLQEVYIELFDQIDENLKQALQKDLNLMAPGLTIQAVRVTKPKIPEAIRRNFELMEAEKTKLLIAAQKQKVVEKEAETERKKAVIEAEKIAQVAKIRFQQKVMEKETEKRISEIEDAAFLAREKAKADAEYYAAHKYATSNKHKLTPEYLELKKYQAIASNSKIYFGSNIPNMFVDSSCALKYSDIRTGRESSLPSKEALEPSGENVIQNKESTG

[1] = target: T2, erlin-2 (native erlin-1/2 complex) (Mus musculus, UniProt Q8BFZ9+Q91X78); assay type: binding
T2 sequence (Q8BFZ9 1-340): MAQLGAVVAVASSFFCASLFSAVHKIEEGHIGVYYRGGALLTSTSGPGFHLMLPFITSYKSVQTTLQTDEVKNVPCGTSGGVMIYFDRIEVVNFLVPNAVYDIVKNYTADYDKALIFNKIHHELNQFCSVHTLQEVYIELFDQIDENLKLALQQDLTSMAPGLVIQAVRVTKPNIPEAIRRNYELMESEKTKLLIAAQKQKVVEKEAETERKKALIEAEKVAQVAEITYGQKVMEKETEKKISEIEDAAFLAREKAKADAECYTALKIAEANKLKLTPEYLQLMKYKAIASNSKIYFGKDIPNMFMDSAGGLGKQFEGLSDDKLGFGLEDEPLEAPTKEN
T2 sequence (Q91X78 1-348): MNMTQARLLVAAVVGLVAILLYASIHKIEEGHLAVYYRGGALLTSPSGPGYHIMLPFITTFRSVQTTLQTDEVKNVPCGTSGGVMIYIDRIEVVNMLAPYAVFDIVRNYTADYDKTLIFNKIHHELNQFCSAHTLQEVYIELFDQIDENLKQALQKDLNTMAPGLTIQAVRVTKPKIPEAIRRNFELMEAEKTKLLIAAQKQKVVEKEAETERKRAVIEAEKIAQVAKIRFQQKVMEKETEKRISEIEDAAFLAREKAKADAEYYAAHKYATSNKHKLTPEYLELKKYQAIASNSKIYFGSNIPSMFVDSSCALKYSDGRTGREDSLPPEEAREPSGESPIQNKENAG

Kd (erlin-1): 13.2 µM | Kd [1]: 13.4 µM
SMILES: CC(C)CCC[C@@H](C)[C@H]1CC[C@H]2[C@@H]3CC=C4C[C@@H](O)CC[C@]4(C)[C@H]3CC[C@]12C [cholesterol]
